# Key:
# aldose reductase = biological target: T1, aldose reductase (Rattus norvegicus, UniProt P07943); assay: In vitro study: inhibition of aldose reductase; format: biochemical, male Wistar rats (lenses); conditions: enzyme from rat lenses; NADPH, L-glyceraldehyde; spectrophotometry at 340 nm
# T1 construct: The aldose reductase used is obtained from the lenses of male Wistar rats; from tissue; host or cells: lenses of male Wistar rats
# Description: 1) In vitro study: inhibition of aldose reductase
# The aldose reductase used is obtained from the lenses of male Wistar rats according to a modification of the method by S. Hayman et al. (Journal of Biological Chemistry 240, p. 877, 1965). The enzymatic extract is diluted in a phosphate buffer in the presence of NADPH and various concentrations of the test products. The reaction is triggered with L-glyceraldehyde and the rate of reaction is measured by monitoring the disappearance of the NADPH by spectrophotometry at 340 nm. The rate of reaction is calculated for each concentration of products, and the concentration required for a 50% reduction in the rate of reaction (IC50) is then evaluated by linear interpolation.
# [1] = system: level of sorbitol in the sciatic nerves; assay: In vivo study: reduction of the accumulation of sorbitol; parameters: species or system male Wistar rats; conditions: Rattus norvegicus, po; 5 mg/kg/day p.o.; streptozotocin-diabetic rats; sciatic nerve sorbitol, relative to diabetic and non-diabetic animals; read-out: Protection against the increase in sorbitol (%) (5 mg/kg/day p.o.)
# Description: 2) In vivo study: reduction of the accumulation of sorbitol
# Male Wistar rats weighing from 200 to 250 g are made diabetic by intravenous injection of streptozotocin (60 mg/kg). They then receive an oral treatment of the test products, in the form of a suspension, 4 hours, 30 hours and 52 hours after the injection of streptozotocin. 18 hours after the final oral treatment, the rats are sacrificed and decapitated and their sciatic nerves are then removed. After extraction, the level of sorbitol in the nerves is measured, according to the enzymatic method described by H. J. Bergmeyer (Methods of enzymatic analysis, H. U. Bergmeyer ed., Academic Press New York 3, p. 1323, 1974). The percentage of protection is calculated for each product relative to the batch of diabetic animals, taking into account the level of sorbitol in the sciatic nerves of non-diabetic rats.
SMILES,IC50 (aldose reductase) [nM],melting point [°C],inhibition in vivo at 5 mg/kg [1] [%]
"Cc1cc(NS(=O)(=O)c2cc(F)cc(F)c2)cc(C)c1S(=O)(=O)C[N+](=O)[O-] [Example 30, 3,5-Difluoro-N-[3,5-dimethyl-4-[(nitromethyl)sulphonyl]phenyl]benzenesulphonamide]",8,187 to 190,87
"Cc1cc(NS(=O)(=O)c2ccc(F)c(F)c2)cc(C)c1S(=O)(=O)C[N+](=O)[O-] [Example 10, 3,4-Difluoro-N-[3,5-dimethyl-4-[(nitromethyl)sulphonyl]phenyl]benzenesulphonamide]",7,158 to 160,66
"Cc1cc(NS(=O)(=O)c2ccccc2C(F)(F)F)cc(C)c1S(=O)(=O)C[N+](=O)[O-] [Example 14, N-[3,5-Dimethyl-4-[(nitromethyl)sulphonyl]phenyl]-2-(trifluoromethyl)benzenesulphonamide]",7,171 to 173,70
"Cc1cc(NS(=O)(=O)Cc2ccccc2)cc(C)c1S(=O)(=O)C[N+](=O)[O-] [Example 26, N-[3,5-Dimethyl-4-[(nitromethyl)sulphonyl]phenyl]-phenylmethanesulphonamide]",6,124 to 126,104
"Cc1cc(NS(=O)(=O)c2ccc(F)cc2)cc(C)c1S(=O)(=O)C[N+](=O)[O-] [Example 24, N-[3,5-Dimethyl-4-[(nitromethyl)sulphonyl]phenyl]-4-fluorobenzenesulphonamide]",8,152 to 154,80
"Cc1cc(NS(=O)(=O)c2cccc(F)c2F)cc(C)c1S(=O)(=O)C[N+](=O)[O-] [Example 29, 2,3-Difluoro-N-[3,5-dimethyl-4-[(nitromethyl)sulphonyl]phenyl]benzenesulphonamide]",7,166 to 168,71
"Cc1cc(NS(=O)(=O)c2ccccc2F)cc(C)c1S(=O)(=O)C[N+](=O)[O-] [Example 34, N-[3,5-Dimethyl-4-[(nitromethyl)sulphonyl]phenyl]-2-fluorobenzenesulphonamide]",9,175 to 177,69
"Cc1cc(NS(=O)(=O)c2cccc(Br)c2)cc(C)c1S(=O)(=O)C[N+](=O)[O-] [Example 13, 3-Bromo-N-[3,5-dimethyl-4-[(nitromethyl)sulphonyl]-phenyl]benzenesulphonamide]",8,156 to 158,70
Cc1cc(NS(=O)(=O)c2ccccc2)cc(C)c1S(=O)(=O)C[N+](=O)[O-] [Example 1],8,129 to 131,65
"Cc1cc(NS(=O)(=O)c2cccc(F)c2)cc(C)c1S(=O)(=O)C[N+](=O)[O-] [Example 25, N-[3,5-Dimethyl-4-[(nitromethyl)sulphonyl]phenyl]-3-fluorobenzenesulphonamide]",7,135 to 137,85
